The test system of one assay is Akt. The experiment in a line: Western immunoblot phospho-Akt in 3T3-L1 adipocytes. To be noted: 100 μM (Figure 4 legend). Type of assay: cell-based, mouse. The method, then: (§1) Insulin (100 nM) or aminoimidazole carboxamide ribonucleotide (AICAR; 1 mM) were added to some vehicle-treated wells 30 min prior to the end of the treatment and served as the positives controls. Protein content was assayed by the bicinchoninic acid method (Thermo Scientific Pierce Protein Research, Rockford, IL) standardized to bovine serum albumin. Western immunoblotting was performed as described elsewhere (Eid et al. [2010]). Membranes were incubated overnight with phospho-AMPK, phospho-Akt, GLUT4, GLUT1 and β-actin antibodies (1:1000 dilution, Cell Signalling Technology, Danvers, MA), or with PPAR-γ, SREBP-1 (1:200, Santa Cruze Biotechnology, Santa Cruz, CA), followed by incubation with HRP-coupled secondary antibody (1:10,000) for 1 h. Immunoreactive bands were visualized by enhanced chemiluminescence and quantified by the Scion Image program (Scion Corporation, Frederick, MD). Experiments were repeated on 3 different passages of cells, each passage containing all conditions in parallel.
(§2) Figure 4. CAME and CAEE inhibit C/EBP-β and PPAR-γ protein expression through mechanisms implicating AMPK pathway. Shown are representative blots of 3T3-adipocytes treated with the maximum nontoxic concentration (100 μM) of either CAME or CAEE. […] Data are expressed as C/EBP-β/β-actin (D), PPAR-γ/β-actin (E), phospho-Akt/pan-Akt (F) and phospho-AMPK/pan-AMPK (G). […]
Background: In western blotting, separated proteins are transferred to a membrane and probed.

A further assay concerns the target T1, G6Pase (Rattus norvegicus, UniProt P43428).
T1 sequence (P43428 1-357): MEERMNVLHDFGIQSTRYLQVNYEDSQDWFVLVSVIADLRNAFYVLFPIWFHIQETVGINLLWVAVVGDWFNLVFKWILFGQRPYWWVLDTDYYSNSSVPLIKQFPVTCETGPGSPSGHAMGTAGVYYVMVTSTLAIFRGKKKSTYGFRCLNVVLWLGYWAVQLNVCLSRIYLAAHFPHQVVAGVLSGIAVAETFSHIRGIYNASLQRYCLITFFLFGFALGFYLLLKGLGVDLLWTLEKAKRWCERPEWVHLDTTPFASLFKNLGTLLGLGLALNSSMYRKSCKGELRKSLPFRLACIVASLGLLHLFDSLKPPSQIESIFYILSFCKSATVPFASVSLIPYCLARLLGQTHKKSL
The experiment in a line: Enzymatic activity of G6Pase in H4IIE cells. The format is cell-based. As to conditions: at 100 μM, relative to DMSO. On the procedure: At 90% confluence, H4-IIE cells were treated with 12.5, 25, 50 and 100 μM of either CAME or CAEE in serum free medium. Vehicle (0.1% DMSO)-treated and 100 nM insulin-treated cells served as the negative and positive control respectively. The activity of G6Pase was assessed by measuring the rate of glucose production in the presence of a non-limiting amount of glucose-6-phosphate (G6P) as described elsewhere (Nachar et al. [2013]). Total glucose production was measured using a commercial glucose assay kit (AutoKit Glucose; Wako Diagnostics, Richmond, VA). Protein content was measured using bicinchoninic acid (BCA) assay (Simpson [2008]) and G6Pase activity was expressed in relation to protein content.
Figure 2. CAME and CAEE inhibit G6Pase by mechanisms involving activation of AMPK. (A) H4IIE hepatocytes were treated for 16 h with several concentrations (12.5, 25, 50 and100 μM) of either CAME or CAEE and G6Pase activity was determined colorimetrically using a commercial glucose assay kit as described under Materials and Methods. Data are expressed relative to vehicle control (0.1% DMSO, 0% inhibition). Insulin (100 nM) applied for similar treatment period served as the positive control. (B and C) Cells were treated with the optimal nontoxic concentration of either CAME, CAEE (50 μM each), or DMSO (0.1%) for 18 h, insulin (100 nM), AICAR (1 mM) applied for 30 min served as the positive controls. (B) The upper blot was probed with anti-phospho-AMPK antibody (Thr 172) and the lower blot was probed with anti-pan AMPK. (C) Blots were probed with antibodies against phospho-Akt (Ser 473) or pan-Akt. Immunoblots are representative of three independent experiments with similar results. (D) Data are expressed as phospho-AMPK/pan-AMPK and are given as mean ± SEM from 3 experiments. *p < 0.05 indicates a significant difference, **(p < 0.01), ***(p < 0.001) from the vehicle control group.

The next assay deals with 3T3-L1 adipocytes. As to the kind of experiment: Adipogenesis assay (AdipoRed lipid accumulation). The format is cell-based. To be noted: Mus musculus, 192 h, 3T3-L1, day 8 of differentiation; for IC50: read-out: adipogenesis inhibition IC50. The method, then:
Starting from day 0 of differentiation, 3T3-L1 adipocytes were separately treated with different concentrations of either CAME or CAEE (12.5, 25, 50 and 100 μM). Cells treated with vehicle (0.1% DMSO) in proliferation and differentiation media were used as negative controls. The adipogenic compound rosiglitazone (5 μM) was added to some vehicle-treated wells and served as the positive control. At day 8 after initiation of differentiation, intracellular lipid accumulation was quantified as previously described using AdipoRed Reagent according to the manufacturer’s protocol (Martineau et al. [2010]).
Figure 3. (A and B) Anti-adipogenic effect of CAME and CAEE in 3T3-L1 adipocytes. Cells were treated with several concentrations (12.5, 25, 50 and100 μM) of either CAME or CAEE in DMEM containing 10% FBS and the standard adipogenic cocktail (500 μM 3-isobutyl-1-methylxanthine, 500 nM insulin and 10 μM dexamethasone) for 2 days then in DMEM containing 10% FBS and 500 nM insulin starting from days 2-8 of differentiation. This medium was changed every 2 days. (A) On day 8, lipid content was measured by AdipoRed assay. Results represent the means ± SEM of three independent experiments. *Indicates a significant (p ≤ 0.05) difference, **(p < 0.01), ***(p < 0.001) from the vehicle control group. […] Vehicle-treated cells show the presence of lipid droplets. On the other hand, cells treated with the maximum nontoxic concentration (100 μM) of either CAME or CAEE retained the fibroblast-like morphology of pre-adipocytes and were devoid of lipid droplets. (C) CAME and CAEE inhibit pre-adipocyte clonal expansion. Confluent 3T3-L1 pre-adipocytes undergoing clonal expansion in response to differentiation cues were treated with vehicle or 12.5, 25, 50 and 100 μM of either CAME or CAEE for 20 h and incorporation of ^3H-labeled thymidine was measured. Normalized data are presented as mean ± SEM of three independent experiments. **Indicates a significant (p ≤ 0.01) difference, ***(p < 0.001) from the vehicle control group.

In the next assay the test system is AMPK. The experiment in a line: Western immunoblot phospho-AMPK in 3T3-L1 adipocytes. The format is cell-based, mouse. To be noted: 100 μM (Figure 4 legend), phospho-AMPK/pan-AMPK. The method, then:
as §1, §2

For `CCOC(=O)/C=C/c1ccc(O)c(O)c1` [CAEE, caffeic acid ethyl ester], the Akt phosphorylation result with Akt is on record as “did not modulate”. Moreover, the inhibition at 100 µM against G6Pase worked out at 62.7 ± 6%. Further, in the assay with 3T3-L1 adipocytes, the IC50 was found to be 12.9 µM and the inhibition at 100 µM worked out at 97.3 ± 3%. Besides, the “phospho-AMPK, fold increase over basal levels” value in the assay on AMPK is 2.3 fold.
Regarding `COC(=O)/C=C/c1ccc(O)c(O)c1` [CAME, CA methyl ester], the Akt phosphorylation result in the assay with Akt is given as “did not modulate”. In addition, the values for the inhibition at 100 µM against G6Pase and in the assay on 3T3-L1 adipocytes were 62 ± 6.9% and 83.3 ± 7.2%, respectively. The IC50 with 3T3-L1 adipocytes was determined as 13.8 µM. For the same compound, in the assay on AMPK, the “phospho-AMPK, fold increase over basal levels” value amounted to 2.4 fold.

Usually inhibition stands for the percentage by which the read-out fell short of the control. Higher therefore signals a strong effect. As usually defined, the IC50 is the concentration needed to halve the response being measured.

Source of the values: publication PMC6130489, “Caffeic acid methyl and ethyl esters exert potential antidiabetic effects on glucose and lipid metabolism in cultured murine insulin-sensitive cells through mechanisms implicating activation of AMPK” (Pharmaceutical Biology, 2017).
